Data published in patent EP0806422A2, “Anti-cataract agent” (Senju Pharmaceutical Co., Ltd., priority 1996, dated 1997).

Key:
[1] = target: T1, rat lens aldose reductase (Rattus norvegicus, UniProt P07943); test: Enzyme assay: inhibition of aldose reductase, monitored spectrophotometrically as decrease in NADPH absorbance at 340 nm; assay type: biochemical; conditions: 1x10^-4 M concentration; purified recombinant rat aldose reductase, in vitro; read-out: inhibition rate of aldose reductase
T1 construct: made in house; host or cells: Escherichia coli
Description: The activity of purified recombinant rat aldose reductase (Old SE, Sato S, Kador PF. and Carper DA.: In vitro expression of rat lens aldose reductase in Escherichia coli., Proc. Nat. Acad. Sci. USA, 87:4942-4945, 1990) was assayed by spectrophotometrically monitoring decrease in absorbance of NADPH (reduced nicotinamide adenine dinucleotide phosphate) at 340 nm (Kador PF., Goosey JD., Sharpless NE., Kolish J, and Miller DD.: Stereoscopic inhibition of aldose reductase, European J., Med. Chem. 16: 293-298, 1981).
One enzyme unit was defined as amount of enzyme consuming one micromole of NADPH under the assay conditions.
With reference to 1-N,N-dimethylsulfamoyl-4-(2-pyrimidinyl)piperazine (SRA-1; product of Example 3) and 4-((4-dimethylsulfamoyl)piperazino)-2,6-dimethoxypyrimidine (SRA-2; product of Example 1), their in vitro ability to inhibit rat lens aldose reductase were determined.

Diabetic Rats = test: Cataract formation in streptozotocin-induced diabetic rats, lens changes evaluated by slit lamp; assay type: in vivo, Sprague Dawley rats; conditions: 0.06% drug in rat chow; for cataract formation: Figure 1, result of Test Example 2; for cataract formation / onset and severity of sugar cataract formation / progress of lens changes to the vacuole stage: diabetic rats; for Lens changes were observed at: days after injection of streptozotocin, untreated diabetic lens changes began at 21 days; for onset and severity of sugar cataract formation: compared with control chow; for progress of lens changes to the vacuole stage: in untreated diabetic rats vacuoles clearly visible by 35 days
Description: Diabetes was induced in 40 young (60-80 g) Sprague Dawley rats by tail vein injection of 75 mg/kg streptozotocin in Tris-HCl and divided into 3 groups. After 4 days all rats were tested with glucostrips (tail blood), and those with blood sugar levels less than 250 mg % were reinjected with 70 mg/kg streptozotocin dissolved in Tris-HCl.
Drug administration was carried out by adding 0.06% drug to rat chow. The rat chow with added drug was formed by mixing appropriate amounts of each drug with powdered rat chow and then cold pressing the mixture into different size pellets for identification. The rat chow was commercially prepared by BioServe (Frenchtown, N.J.). Subsequently, each compound was dissolved in 500 ml of Tris buffer and mixed with 5 kg of standard rat chow pellets until all liquid was absorbed into the pellets and the wet pellets were dried for 24 hours at 60°C. Rat chow not containing drug was fed to a control group of rats.
Lens changes were evaluated by portable slit lamp at approximately 3-6 day intervals in the diabetic rats. Lens changes were evaluated on a scale at 0 to 3 as follows: 0 clear lens; 1 vacuoles present; 2 cortical opacities; 3 hypermature cataract. The severity of lens changes within the vacuole and cortical stage was further subjectively defined as follows: 1.2 peripheral equatorial vacuoles; 1.4 obvious formation 50% of the lens; 1.6 obvious vacuole formation 50% of lens; 1.8 total lens covered by vacuoles; 2.2 start of cortical changes with posterior capsule still visible by slit lamp; 2.4 advanced cortical opacities covering most of lens; cortical opacity expanded to whole lens; 2.8 total lens is white in appearance.

SMILES | inhibition at 100 µM [1] | cataract formation (Diabetic Rats) | Lens changes were observed at (Diabetic Rats) | onset and severity of sugar cataract formation (Diabetic Rats) | progress of lens changes to the vacuole stage (Diabetic Rats)
CN(C)S(=O)(=O)N1CCN(c2ncccn2)CC1 [SRA-1, 1-N,N-dimethylsulfamoyl-4-(2-pyrimidinyl)piperazine] | 5% | inhibited | 39 days | delayed | did not progress to the vacuole stage
COc1cc(N2CCN(S(=O)(=O)N(C)C)CC2)nc(OC)n1 [SRA-2, 4-((4-dimethylsulfamoyl)piperazino)-2,6-dimethoxypyrimidine] | 13% | inhibited | 45 days | delayed | did not progress to the vacuole stage
